Results reported in patent publication US20240009166A1, “USE OF ZANAMIVIR IN PREPARATION OF DRUG FOR TREATING OR PREVENTING PREECLAMPSIA” (Shenzhen Evergreen Therapeutics Co., Ltd., priority 2020, published 2024).
Entries after “also recorded” stand apart in the source; their conditions may differ.

Experiments:
Assay type in all cases: in vivo, CD-1 mice
[1] = tested on: L-NAME-induced pre-eclampsia animal model; test: Blood pressure on day 12 of gestation in L-NAME-induced pre-eclampsia model; conditions: days 1-18 of pregnancy, vs pregnancy model group
Description: (§1) Pregnant CD-1 mice (age 8-10 weeks) were randomly divided into control and pre-eclampsia model groups. On days 7-16 of the gestational cycle, the model group mice were induced with preeclampsia by subcutaneous injection of 50 mg/kg of N-nitro-L-arginine methyl ester (L-NAME) daily. For the control group, an equal volume of the solvent was injected subcutaneously. [table] In animal models of L-NAME-induced pre-eclampsia, symptoms of hypertension appear two days after the first administration of L-NAME and persist until at least five days after the first administration of L-NAME, according to the literature. The appearance of proteinuric symptoms was relatively late. Therefore, in this experiment, we focused on monitoring the blood pressure of […] on day 12 of gestation (i.e., five days after the first administration of L-NAME), as well as collecting 24-hour urine on day 17-18 of gestation and measuring the level of total protein. Also, we recorded the number of pups produced by each group of pregnant rats.

[2] = tested on: L-NAME-induced pre-eclampsia animal model; test: 24-hour urinary total protein on days 17-18 of gestation in L-NAME-induced pre-eclampsia model; conditions: for L-NAME-induced 24-hour urinary protein elevation: vs pregnancy model group
Description: as §1

[3] = tested on: L-NAME-induced pre-eclampsia animal model; test: Number of pups (litter size) in L-NAME-induced pre-eclampsia model
Description: as §1

[4] = 90 mg/kg tail vein injection daily
[5] = 120 mg/kg tail vein injection daily

CC(=O)N[C@H]1[C@H]([C@H](O)[C@H](O)CO)OC(C(=O)O)=C[C@@H]1N=C(N)N [zanamivir, 5-acetamido-4-[(aminoiminomethyl)-amino]-2,6-hydro-3,4,5-trideoxy-D-propanetriolyl-D-galactos-2-enolonic acid]
blood pressure [1, 4]: did not significantly change
L-NAME-induced increase in diastolic blood pressure [1, 5]: significantly reduced
L-NAME-induced increase in mean arterial pressure [1, 5]: significantly reduced
L-NAME-induced increase in systolic blood pressure [1, 5]: significantly reduced
L-NAME-induced 24-hour urinary protein elevation [2, 4]: significantly reduced
L-NAME-induced 24-hour urinary protein elevation [2, 5]: significantly reduced
L-NAME-induced elevation of 24-hour urinary protein ([2]; FIG. 4 legend, dose not stated): significantly reduces
reduction of litter size caused by L-NAME ([3]; 90 mg/kg tail vein injection daily, vs pregnancy model group): significantly improved
reduction of litter size caused by L-NAME ([3]; 120 mg/kg tail vein injection daily, vs pregnancy model group): significantly improved; also recorded: returning to a level comparable to that of the pregnant control group
reduction of litter size caused by L-NAME ([3]; FIG. 5 legend, dose not stated): significantly improved
